Laboratory results: patent US12662451B2, “Chemical compounds and uses thereof” (GLAXOSMITHKLINE INTELLECTUAL PROPERTY (NO.4) LIMITED, priority 2023, dated 2026)
Read-outs that look alike come from different tables or passages of the source.

Assays:
[1] = tested on: SW48 human colorectal cancer cells (MSI-H cancer cells); assay: SW48 cell viability, CellTiter-Glo, 120 hours (Example B); settings: for CC50: Homo sapiens
[2] = Cell culture media unbound percentage and stability by rapid equilibrium dialysis (Example C); format: in vitro ADME; settings: bovine, cell assay medium (RPMI-1640 with 10% fetal bovine serum), pH 7.4, rapid equilibrium dialysis, 4 hours at 37° C., read-out: Cell Culture Media Binding (% unbound)
Procedure: (§1) It was observed that the compounds of the present disclosure are bound to cell assay media to various degrees, which would affect the cellular potency analysis in Example B. To measure free drug potency, concentrations used in the cell assays were corrected with the measured free fraction determined in the cell assay media. Compounds were incubated in a rapid equilibrium dialysis (RED) at a nominal concentration of 1 μM, using a dialysis buffer of phosphate-buffered saline (PBS, 100 mM sodium phosphate+150 mM sodium chloride, pH 7.4). The test compound was spiked into the medium. Aliquots were added to the donor wells of a RED plate in triplicate, and blank PBS was added to each receiver well, at volumes recommended by the manufacturer. Plates were incubated with shaking at 200 rpm for 4 hours at 37° C. The resultant samples were analysed by LC-MS/MS using a specific and sensitive method. Results were reported as analyte:internal standard peak area ratios (PARs), and the percent unbound was calculated with the following equation:
[formula] where D=the matrix dilution factor (D=1 for media); Apparent Fu=Crec/Cdon; Crec=PAR in receiver samples; Cdon=PAR in donor samples. Percent stability was calculated by:
(§2) [formula] where Cfinal=PAR in the T=240 minute sample; Cinitial=PAR in the T=0 minute sample. Cell culture media unbound percentage and calculated free drug potency of selected compounds along with their measured potency from Example B are shown in Table 3.

[3] = tested on: SW48 human colorectal cancer cells; assay: Calculated free drug potency in SW48 cell assay, corrected with media free fraction (Example C); format: cell-based; settings: for CC50: Homo sapiens, SW48, SW48 pCC50 corrected with measured free fraction in cell assay media; for Free Drug SW48 pCC50: SW48 pCC50 corrected with measured free fraction in cell assay media
Procedure: as §1, §2

[4] = target: T1, recombinant full-length WRN protein (1-1432) (Homo sapiens, UniProt Q14191); assay: WRN unwinding activity, fluorogenic 384-well assay (Example A); format: biochemical; settings: WRN unwinding activity, Table 2; for IC50: 4 hr, read-out: 4 hr UNW pIC50 (converted)
T1 construct: recombinant full-length WRN protein (1-1432)
T1 sequence (Q14191 whole entry): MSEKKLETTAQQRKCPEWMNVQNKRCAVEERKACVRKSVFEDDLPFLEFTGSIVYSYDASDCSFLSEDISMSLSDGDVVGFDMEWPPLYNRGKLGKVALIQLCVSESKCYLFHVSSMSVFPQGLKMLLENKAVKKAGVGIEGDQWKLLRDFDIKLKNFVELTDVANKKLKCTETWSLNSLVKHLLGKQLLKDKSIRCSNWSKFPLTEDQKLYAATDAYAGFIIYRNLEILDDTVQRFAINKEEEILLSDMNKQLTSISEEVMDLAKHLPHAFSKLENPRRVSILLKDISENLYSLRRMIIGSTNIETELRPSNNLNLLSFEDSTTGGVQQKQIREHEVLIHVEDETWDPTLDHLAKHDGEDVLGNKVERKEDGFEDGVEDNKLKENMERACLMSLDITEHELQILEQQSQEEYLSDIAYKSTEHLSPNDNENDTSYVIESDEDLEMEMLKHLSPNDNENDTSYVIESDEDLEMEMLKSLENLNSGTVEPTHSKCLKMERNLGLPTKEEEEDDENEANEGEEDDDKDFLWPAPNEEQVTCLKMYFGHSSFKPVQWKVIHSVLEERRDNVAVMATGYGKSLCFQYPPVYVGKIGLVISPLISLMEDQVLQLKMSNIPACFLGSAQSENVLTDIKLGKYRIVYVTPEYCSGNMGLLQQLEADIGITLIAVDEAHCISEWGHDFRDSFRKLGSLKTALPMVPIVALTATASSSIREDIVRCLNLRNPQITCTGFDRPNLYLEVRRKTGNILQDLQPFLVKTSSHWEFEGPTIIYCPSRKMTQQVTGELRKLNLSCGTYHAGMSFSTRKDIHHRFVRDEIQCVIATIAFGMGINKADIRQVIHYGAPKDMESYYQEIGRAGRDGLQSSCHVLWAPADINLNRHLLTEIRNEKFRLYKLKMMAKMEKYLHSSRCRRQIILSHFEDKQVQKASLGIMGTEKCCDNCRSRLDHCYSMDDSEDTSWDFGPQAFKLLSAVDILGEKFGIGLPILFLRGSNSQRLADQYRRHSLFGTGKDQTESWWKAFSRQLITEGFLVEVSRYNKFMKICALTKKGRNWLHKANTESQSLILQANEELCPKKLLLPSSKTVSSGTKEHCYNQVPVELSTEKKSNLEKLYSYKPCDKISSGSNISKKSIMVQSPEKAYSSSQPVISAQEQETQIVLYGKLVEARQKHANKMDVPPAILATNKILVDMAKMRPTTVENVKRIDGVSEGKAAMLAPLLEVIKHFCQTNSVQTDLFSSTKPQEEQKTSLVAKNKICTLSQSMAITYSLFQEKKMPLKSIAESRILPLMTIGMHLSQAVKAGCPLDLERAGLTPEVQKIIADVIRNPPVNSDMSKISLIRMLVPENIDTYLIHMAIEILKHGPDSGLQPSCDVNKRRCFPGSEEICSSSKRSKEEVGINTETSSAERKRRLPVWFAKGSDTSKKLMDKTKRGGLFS
Method in brief: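 200 pM enzyme (2× stock) preincubated with compound 4 h at ambient temperature, then 200 μM ATP and 12 nM quenched TAMRA-labelled dsDNA (2× stocks) added for 60 min; EDTA-quenched. Buffer 25 mM Tris pH 8.0, 5 mM NaCl, 2 mM MgCl2. Fluorescence at 525/598 nm; pIC50 from four-parameter fit.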

[5] = SW48, 120 h, read-out: SW48 pCC50, SW48 cell viability, 120 hours incubation (converted), Table 2
[6] = SW48, read-out: SW48 pCC50, measured potency from Example B, as repeated in Table 3 (converted)
[7] = SW48 cell viability, 120 hours incubation, Table 2
[8] = measured potency from Example B, as repeated in Table 3

| SMILES | CC50 [1, 5] [µM] | CC50 [1, 6] [µM] | fraction unbound at 4 h, 1 µM [2] | CC50 [3] [µM] | IC50 [4] [µM] | SW48 pCC50 [1, 7] | SW48 pCC50 [1, 8] | Free Drug SW48 pCC50 [3] | 4 hr UNW pIC50 [4] |
| --- | --- | --- | --- | --- | --- | --- | --- | --- | --- |
| Cc1nc2cc(S(=O)(=O)N(C)c3ccc([C@H]4C[C@@H](C#N)C[C@@H](C(=O)Nc5ccc(C(F)(F)F)cc5F)[C@@H]4C(=O)O)cc3)ccc2n1C (single isomer, unassigned) [Example 287] | 0.398 | 0.398 | 0.156 | 0.0617 | 0.00158 |  |  |  |  |
| CN1CCOc2ccc(S(=O)(=O)N(C)c3ccc([C@H]4CCC[C@@H](C(=O)Nc5ccc(C(F)(F)F)cc5F)[C@@H]4C(=O)O)cc3)cc21 [Example 122, (1R,2S,6R)-2-(4-((N,4-dimethyl-3,4-dihydro-2H-benzo[b][1,4]oxazine)-6-sulfonamido)phenyl)-6-((2-fluoro-4-cyclohe(trifluoromethyl)phenyl)carbamoyl)xane-1-carboxylic acid] | 1 | 1 | 0.0056 | 0.00562 | 0.00794 |  |  |  |  |
| Cc1nc2cc(S(=O)(=O)N(C)c3ccc([C@H]4C[C@@H](N5CCC(F)(F)CC5)C[C@@H](C(=O)Nc5ccc(C(F)(F)F)cc5F)[C@@H]4C(=O)O)cc3)ccc2n1C (stereo in doubt) [Example 344] | 0.126 | 0.126 | 0.118 | 0.0148 | 0.00501 |  |  |  |  |
| Cc1nc2cc(S(=O)(=O)N(C)c3ccc([C@H]4C[C@@H](N5CCOCC5)C[C@@H](C(=O)Nc5ccc(C(F)(F)F)cc5F)[C@@H]4C(=O)O)cc3)ccc2n1C (single isomer, unassigned) [Example 340] |  |  |  |  | 0.00794 | 5.1 | 5.1 | 5.99 |  |
| Cc1nc2cc(S(=O)(=O)N(C)c3ccc([C@@H]4C[C@@H]5COC[C@@H]5[C@@H](C(=O)Nc5ccc(C(F)(F)F)cc5F)[C@@H]4C(=O)O)cc3)ccc2n1C (single isomer, unassigned) [Example 390] |  |  |  |  | 0.00631 | 5.7 | 5.7 | 6.49 |  |
| CN(c1ccc([C@H]2CCC[C@@H](C(=O)Nc3ccc(C(F)(F)F)cc3F)[C@@H]2C(=O)O)cc1)S(=O)(=O)c1cc(I)c2occc2c1 [Example 117, (1R,2R,6S)-2-((2-fluoro-4-(trifluoromethyl)phenyl)carbamoyl)-6-(4-((7-iodo-N-methylbenzofuran)-5-sulfonamido)phenyl)cyclohexane-1-carboxylic acid] | 3.98 |  |  |  | 0.0631 |  | 5.4 | 8.36 |  |
| Cc1nc2cc(S(=O)(=O)N(C)c3ccc([C@H]4C[C@@H](N5CCC[C@@H](F)C5)C[C@@H](C(=O)Nc5ccc(C(F)(F)F)cc5F)[C@@H]4C(=O)O)cc3)ccc2n1C (single isomer, unassigned) [Example 347, rel-(1R*,2R*,4S*,6S*)-2-((2-fluoro-4-(trifluoromethyl)phenyl)carbamoyl)-4-((R)-3-fluoropiperidin-1-yl)-6-(4-((N,1,2-trimethyl-1H-benzo[d]imidazole)-5-sulfonamido)phenyl)cyclohexane-1-carboxylic acid] |  |  |  |  | 0.01 | 5.2 | 5.2 | 6.17 |  |
| CN(c1ccc([C@H]2CCC[C@@H](C(=O)Nc3ccc(C(F)(F)F)cc3F)[C@@H]2C(=O)O)cc1)S(=O)(=O)c1ccc(-c2ccn(C)n2)cc1 [Example 99, (1R,2R,6S)-2-((2-fluoro-4-(trifluoromethyl)phenyl)carbamoyl)-6-(4-((N-methyl-4-(1-methyl-1H-pyrazol-3-yl)phenyl)sulfonamido)phenyl)cyclohexane-1-carboxylic acid] |  |  |  |  |  | 6.1 | 6.1 | 7.77 | 8.6 |
| Cc1nc2cc(S(=O)(=O)N(C)c3ccc([C@H]4C[C@@H](O[C@H]5CCOC5)C[C@@H](C(=O)Nc5ccc(C(F)(F)F)cc5F)[C@@H]4C(=O)O)cc3)ccc2n1C (stereo in doubt) [Example 324, (1R*,2R*,4R*,6S*)-2-((2-fluoro-4-(trifluoromethyl)phenyl)carbamoyl)-4-(((S)-tetrahydrofuran-3-yl)oxy)-6-(4-((N,1,2-trimethyl-1H-benzo[d]imidazole)-5-sulfonamido)phenyl)cyclohexane-1-carboxylic acid] |  |  |  |  |  | 5.1 | 5.1 | 5.60 | 7.2 |
| Cc1nc2cc(S(=O)(=O)N(C)c3ccc([C@H]4C[C@@H](N5CCC[C@@H](F)C5)C[C@@H](C(=O)Nc5ccc(C(F)(F)F)cc5F)[C@@H]4C(=O)O)cc3)ccc2n1C (single isomer, unassigned) [Example 376, rel-(1R*,2R*,4R*,6S*)-2-((2-fluoro-4-(trifluoromethyl)phenyl)carbamoyl)-4-((R)-3-fluoropiperidin-1-yl)-6-(4-((N,1,2-trimethyl-1H-benzo[d]imidazole)-5-sulfonamido)phenyl)cyclohexane-1-carboxylic acid] |  |  |  |  | 0.00251 | 7.1 | 7.1 | 7.70 |  |
| Cc1nc2cc(S(=O)(=O)N(C)c3ccc([C@H]4C[C@@H]5OCC[C@@H]5[C@@H](C(=O)Nc5ccc(C(F)(F)F)cc5F)[C@@H]4C(=O)O)cc3)ccc2n1C (single isomer, unassigned) [Example 158] |  |  |  |  | 0.0316 | 5.4 | 5.4 | 6.03 |  |
| Cc1nc2cc(S(=O)(=O)N(C)c3ccc([C@H]4CCC[C@@H](C(=O)Nc5ccc(C(F)(F)F)cc5F)[C@@H]4C(=O)O)cc3)cc(C3CCCN(C)C3)c2n1C (relative stereo) [Example 270, (1R,2R,6S)-2-((2-fluoro-4-(trifluoromethyl)phenyl)carbamoyl)-6-(4-((N,1,2-trimethyl-7-((S*)-1-methylpiperidin-3-yl)-1H-benzo[d]imidazole)-5-sulfonamido)phenyl)cyclohexane-1-carboxylic acid] |  |  |  |  |  | 6.5 | 6.5 | 7.18 | 9.0 |
| Nc1ccccc1-c1ccc([C@H]2CCC[C@@H](C(=O)Nc3ccc(C(F)(F)F)cc3F)[C@@H]2C(=O)O)cc1 [Example 24, (1R,2S,6R)-2-(2′-amino-[1,1′-biphenyl]-4-yl)-6-((2-fluoro-4-(trifluoromethyl)phenyl)carbamoyl)cyclohexane-1-carboxylic acid] | 15.8 |  |  |  | 0.0794 |  |  |  |  |
| CC[C@H]1CC[C@H](NC(=O)[C@@H]2CCC[C@H](c3ccc(N(C)S(=O)(=O)c4ccc5c(c4)nc(C)n5C)cc3)[C@H]2C(=O)O)CC1 [Example 176, (1R,2R,6S)-2-(((1r,4R)-4-ethylcyclohexyl)carbamoyl)-6-(4-((N, 1,2-trimethyl-1H-benzo[d]imidazole)-5-sulfonamido)phenyl)cyclohexane-1-carboxylic acid] | 1.26 |  |  |  | 0.00126 |  |  |  |  |
| CN(c1ccc([C@H]2CCC[C@@H](C(=O)Nc3ccc(C(F)(F)F)cc3F)[C@@H]2C(=O)O)cc1)S(=O)(=O)c1ccc(C2CCN(C(=O)OC(C)(C)C)CC2)cc1 [Example 115, (1R,2S,6R)-2-(4-((3-(1-(tert-butoxycarbonyl)piperidin-4-yl)-N-methylphenyl)sulfonamido)phenyl)-6-((2-fluoro-4-(trifluoromethyl)phenyl)carbamoyl)cyclohexane-1-carboxylic acid] | 1.26 |  |  |  | 0.00501 |  |  |  |  |
| Cc1nc2cc(S(=O)(=O)N(C)c3ccc([C@H]4C[C@H](N5CCC(F)(F)CC5)C[C@@H](C(=O)Nc5ccc(C(F)(F)F)cc5F)[C@@H]4C(=O)O)cc3)ccc2n1C (relative stereo) [Example 342, rel-(1R,2R,4S,6S)-4-(4,4-difluoropiperidin-1-yl)-2-((2-fluoro-4-(trifluoromethyl)phenyl)carbamoyl)-6-(4-((N,1,2-trimethyl-1H-benzo[d]imidazole)-5-sulfonamido)phenyl)cyclohexane-1-carboxylic acid] | 6.31 | 6.31 | 0.0623 | 0.389 |  |  |  |  |  |
